Data as given in US8394776B2, “Use of ursolic acid saponin,oleanolic acid saponin in preparation of increasing leucocytes and/or platelet medicine” (Chengdu Di'Ao Jiuhong Pharmaceutical Factor, priority 2007, dated 2013).
Marks after values point to notes of the source that are not given here.

Legend:
[1] = system: bone marrow mononuclear cell (BMMNC); test: Monocytic proliferation in bone marrow of mice cultured in vitro (SRB method); format: cell-based, KunMing mice; conditions: cultured 5 days; for Growth Rate of Proliferation %, 1 μg/ml: versus blank control
Excerpt: 15-20 KunMing mice (purchased from Laboratory Animal Center of Zhengzhou University, Henan) of either sex were killed by cervical vertebral dislocation. Bilateral thighbones were isolated and caput femoris was cut off. The marrow was washed repeatedly with serum-free RPMI1640 (Gibco Corp.), the wash solution containing marrow cells was collected, sucked and blew repeatedly with a pipette to make the cells disperse. After standing for a moment, the supernatant was sucked up and centrifugated at 100 g for 3 min to collect the cell pellet. The cells were resuspended in a culture media and brought to a volume of 5 ml. The cell suspension was added to the upper layer of a centrifugal tube containing 5 ml of a lymphocyte separation medium of mice and centrifugated at 400 g for 30 min. The milk-white bone marrow mononuclear cell (BMMNC) layer in the middle of the interface was collected and washed with serum-free medium RPMI1640 for three times to obtain a BMMNC suspension, which was inoculated into a 96-well plate at forty thousand per well after counting. Positive drugs rhG-CSF (recombinant granulocyte colony-stimulating factor, manufactured by QI LU Pharmaceutical Co., LTD., Shandong) or test samples of different concentrations were added, and meanwhile a blank control group without drug was established. They were cultured in a 5% CO2 incubator at 37 for 5 days. Cell proliferation was measured by a conventional SRB (Sigma) method in which OD at 490 nm was measured after being dyed with SRB. The growth rates of cell proliferation after drug treatment were calculated (Growth rate of cell proliferation=experimental group-blank control group/blank control group*100%).

leukocytes (WBC) = test: Cyclophosphamide-induced leukopenia in mice: leukocytes (WBC); format: in vivo, Kunming mice
Method: (§1) Further, in vivo experiments were carried out on the compounds involved in the present invention using animal models of cyclophosphamide-induced leukopenia in mice. Experimental methods are briefed as follows: Healthy Kunming mice, of which half were male and the other half were female, were divided into groups, each group incuding 18 mice, and those mice weighing 18-22 g were selected and divided into groups randomly according to their body weights. Each group was given a different drug, wherein the negative control group and model control group were given physiological saline of the same volume, and the positive control group was treated with granulocyte colony-stimulating factors 40 μg/kg through subcutaneous injection (injection volume: 0.1 ml/10 g). After administration for 3 days, except the negative control group, other treatment groups were treated with 100 mg/kg cyclophosphamide (CY) through lumbar injection once a day for three days to cause a decrease of leukocytes in mice. A drop of blood (20 μl) was taken from posterior orbital venous plexus to detect the hemogram to observe the situation of leukocytes and platelets on day 1, day 3 and/or day 5 after the final lumbar injection of cyclophosphamide (i.e day 1, day 3 and/or day 5 after modeling) (Note: Each treatment group was administrated incessantly). The mice were killed on day 5 after the final lumbar injection of cyclophosphamide (i.e day 5 after modeling), and the leukocytes (WBC) and platelets (PLT) of the hemogram index were counted.
This experiment mainly studies the effect of G-1, G-6 and G-8 of ursolic acid saponin in increasing leukocytes, and compares the therapeutic effects of aglycon of ursolic acid and oleanolic acid and of the compound G-22 which has been disclosed by a patent.
(§2) The purpose of this experiment is to study the effect of G-1, G-3, G-11 and G-12 of ursolic acid saponin and oleanolic acid saponin in increasing platelets, and to observe whether G-11 and G-12 of oleanolic acid saponin have an effect in increasing leukocytes.

platelets (PLT) = test: Cyclophosphamide-induced leukopenia in mice: platelets (PLT); format: in vivo, Kunming mice; conditions: Experimental Example 3
Method: as §1, §2

erythrocytes = test: Comparison of hemolytic activities (HD50); format: cell-based, rabbit; conditions: 10% rabbit erythrocyte suspension; 37° C., 1 hour; from linear regression over 40-200 μg/ml
Method: The test samples were dissolved in DMSO/physiological saline (1:4) as a solvent to generate the tested concentration gradients of 40, 80, 120, 160, 200 μg/ml. Blood (25 ml) was taken from a rabbit heart, poured into an erlenmeyer flask containing glass beads and shook gently for 10 min to remove fibrinogen so as to convert the blood into defidrinated blood. The resultant blood was transferred into a graduation centrifugal tube. About 10 times physiological saline was added, shook up and centrifuged at 2000 r/min for 5 minutes. The supernatant was removed, and the precipitated erythrocytes were washed with physiological saline again by the above method for 4 times until the supernatant was colorless and transparent. The resulant erythrocytes were prepared into a 10% suspension using physiological saline for testing. 250 μl of the 10% erythrocyte suspension was added into 2.5 ml of a tested sample, solvent (blank control) or distilled water (positive control), mixed thoroughly, and immediately placed in a thermotank maintained at 37° C. for incubation; and it was taken out 1 hour later and centrifuged at 3000 r/min for 5 minutes. The supernatant was taken for determining the OD value at 540 nm with a spectrophotometer. Hemolysis (Hemolysis Percentage)=(absorbance of sample−absorbance of blank control)×100%÷(absorbance of positive control-absorbance of blank control); and the data processing was performed by SPSS13.0 statistical software with drug concentration as an independent variable X and hemolysis as a dependent variable Y to obtain a linear regression equation; then, the drug concentration causing 50% hemolysis, i.e HD50, was calculated according to the equation. A P-value <0.05 was considered statistically significant.

WBC = test: 60Co-γ-induced leukopenia in mice: WBC; format: in vivo, Kunming mice
Excerpt: In order to illustrate the present invention in detail, with a model induced by ^60Co-γ rays, the effects of G-1 and G-22 on leukocytes of chemotherapy-induced-leukopenia mice were compared. The specific operation and the results are as follows.
Healthy Kunming mice, of which half were male and the other half were female, were divided into 6 groups randomly, with 17-18 in each group. Blood was taken from caudal vein to determine the normal hemogram (leucocyte, erythrocyte, platelet and hemoglobin), and adjustments were made according to body weights and hemogram results. The normal control group and model group were given isometric physiological saline once a day for 7 days, and then the post-radiation hemogram was determined. Except the normal control group, other groups were each subjected to a whole body exposure to ^60Co-γ rays at a total dose of 3.0 Gy to prepare the models of leukopenia in mice, followed by further administration for 14 days. The G-CSF group was adminitrated through subcutaneous injection for 5 days from the irradiation day on and the hemogram was determined by taking blood respectively on day 3, day 7 and day 14 after irradiation.

[2] = Experimental Example 3, 0.8 mg/kg
[3] = Experimental Example 2, 0.8 mg/kg
[4] = Experimental Example 2, 0.8 mg/kg, CY 100 mg/kg x 3 days
[5] = Experimental Example 2, 0.8 mg/kg, especially on day 3 after modeling
[6] = Experimental Example 2, 40 μg/kg subcutaneous injection
[7] = Experimental Example 3, 40 μg/kg subcutaneous injection
[8] = 40 μg/kg subcutaneous injection
[9] = 40 μg/kg s.c. for 5 days from irradiation day, 3.0 Gy

Molecule: C[C@H]1[C@H](C)CC[C@]2(C(=O)O[C@@H]3O[C@H](CO)[C@@H](O)[C@H](O)[C@H]3O)CC[C@]3(C)C(=CC[C@@H]4[C@@]5(C)CC[C@H](O[C@@H]6O[C@H](CO)[C@@H](O)[C@H](O)[C@H]6O)C(C)(C)[C@@H]5CC[C@]43C)[C@H]12 [Sample G-3, 3-O-(β-D-glucopyranosyl) ursolic acid-28-O-(β-D-glucopyranosyl) ester]
- Growth Rate of Proliferation %, 1 μg/ml [1]: 25.2%
- leukocytes, Day 1 after modeling (leukocytes (WBC); [2]): 1.16 ± 0.53
- leukocytes, Day 5 after modeling (leukocytes (WBC); [2]): 5.62 ± 2.78
- difference in increasing leukocytes compared with G-22 (in words) (leukocytes (WBC); Experimental Example 3, 0.8 mg/kg, day 5 after modeling): significant difference in increasing leukocytes and platelets
- platelets, Day 1 after modelng (platelets (PLT); 0.8 mg/kg): 473.12 ± 144.68
- platelets, Day 5 after modeling (platelets (PLT); 0.8 mg/kg): 341.93 ± 186.39**★
- difference in increasing platelets compared with G-22 (in words) (platelets (PLT); 0.8 mg/kg, day 5 after modeling): significant difference in increasing leukocytes and platelets
- HD50 (drug concentration causing 50% hemolysis) (erythrocytes): 137.99 µg/mL

Molecule: C[C@H]1[C@H](C)CC[C@]2(C(=O)O)CC[C@]3(C)C(=CC[C@@H]4[C@@]5(C)CC[C@H](O[C@@H]6OC[C@H](O)[C@H](O)[C@H]6O)C(C)(C)[C@@H]5CC[C@]43C)[C@H]12 [Sample G-6, 3-O-(α-L-arabopyranosyl) ursolic acid]
- Growth Rate of Proliferation %, 1 μg/ml [1]: 29.9%
- leukocytes (WBC), Day 3 after modeling (leukocytes (WBC); [3]): 7.13 ± 2.61**★
- leukocytes (WBC), Day 5 after modeling (leukocytes (WBC); [3]): 17.16 ± 14.13
- leukocytes (WBC), Day1 after modeling (leukocytes (WBC); [4]): 1.19 ± 0.47
- difference in increasing leukocytes compared with G-22 (in words) (leukocytes (WBC); [5]): obvious difference in increasing leukocytes
- HD50 (drug concentration causing 50% hemolysis) (erythrocytes): 121.40 µg/mL

Molecule: C[C@H]1[C@H](C)CC[C@]2(C(=O)O[C@@H]3O[C@H](CO)[C@@H](O)[C@H](O)[C@H]3O)CC[C@]3(C)C(=CC[C@@H]4[C@@]5(C)CC[C@H](O[C@@H]6OC[C@H](O)[C@H](O)[C@H]6O)C(C)(C)[C@@H]5CC[C@]43C)[C@H]12 [Sample G-8, 3-O-(α-L-arabopyranosyl) ursolic acid-28-O-(β-D-glucopyranosyl) ester]
- Growth Rate of Proliferation %, 1 μg/ml [1]: 29.5%
- leukocytes (WBC), Day 3 after modeling (leukocytes (WBC); [3]): 6.91 ± 2.54**★
- leukocytes (WBC), Day 5 after modeling (leukocytes (WBC); [3]): 15.32 ± 9.07
- leukocytes (WBC), Day1 after modeling (leukocytes (WBC); [4]): 0.85 ± 0.39
- difference in increasing leukocytes compared with G-22 (in words) (leukocytes (WBC); [5]): obvious difference in increasing leukocytes
- HD50 (drug concentration causing 50% hemolysis) (erythrocytes): 69.96 µg/mL

B1: G-CSF: recombinant granulocyte colony-stimulating factor, manufactured by QI LU Pharmaceutical Co., LTD., Shandong (protein, UniProt P09919 31-207, looked up)
Granulocyte …: TPLGPASSLPQSFLLKCLEQVRKIQGDGAALQEKLVSECATYKLCHPEELVLLGHSLGIPWAPLSSCPSQALQLAGCLSQLHSGLFLYQGLLQALEGISPELGPTLDTLQLDVADFATTIWQQMEELGMAPALQPTQGAMPAFASAFQRRAGGVLVASHLQSFLEVSYRVLRHLAQP
- Growth Rate of Proliferation % ([1]; G-CSF positive drug at 5 pg/ml): 33.2%
- leukocytes (WBC), Day1 after modeling (leukocytes (WBC); [6]): 1.17 ± 0.33
- leukocytes (WBC), Day 3 after modeling (leukocytes (WBC); [6]): 5.93 ± 3.10
- leukocytes (WBC), Day 5 after modeling (leukocytes (WBC); [6]): 13.18 ± 5.53
- leukocytes, Day 1 after modeling (leukocytes (WBC); [7]): 0.63 ± 0.20
- leukocytes, Day 5 after modeling (leukocytes (WBC); [7]): 9.70 ± 5.28
- platelets, Day 1 after modelng (platelets (PLT); [8]): 408.38 ± 86.38
- platelets, Day 5 after modeling (platelets (PLT); [8]): 206.64 ± 140.14
- effect in increasing platelets (in words) (platelets (PLT); G-CSF 40 μg/kg subcutaneous injection): no obvious effect in increasing platelets
- WBC, Day 3 after irradiation (WBC; [9]): 3.71 ± 1.11** 109/L
- WBC, Day 7 after irradiation (WBC; [9]): 4.56 ± 1.17** 109/L
- WBC, Day 14 after irradiation (WBC; [9]): 7.01 ± 1.52** 109/L
- WBC, 1 week after administration (WBC; G-CSF group before irradiation, G-CSF is given only from the irradiation day on): 9.89 ± 3.30 109/L
- WBC, Normal (WBC; normal hemogram (baseline), G-CSF group, not yet dosed): 8.64 ± 2.01 109/L
